In patent publication US20170354659A1, “COMPOSITIONS CONTAINING DEFINED CAFFEINE AND THEOBROMINE LEVELS WITH ENHANCED COGNITIVE PROPERTIES” (The Hershey Company, priority 2014, published 2017):

Key:
[1] = test system: regions of the brain associated with caffeine cravings; assay: fMRI brain blood flow/connectivity analysis; type: in vivo, human; conditions: subjects with a caffeine habit, FIG. 1 and 3
Description: Measurement or detection of changes in the brain can be done using functional MRI (fMRI) and functional brain network analyses as known in the art. The following is an exemplary study using known techniques based upon fMRI scanning of human brains.
These examples represent an intervention study (number of subjects=24) with a randomized controlled, double-blind, placebo-controlled crossover design. The study is designed to ensure completion of all possibilities in the order of delivering the test samples, i.e. each subject is administered each of the possible test beverages in different order. An approximately equal number of men and women should be included and ethnic groups and minorities should also be included. For initial baseline testing, subjects undergo 16 hours of caffeine and chocolate withdrawal for a baseline testing and then participate in four separate brain scanning visits over 5-10 weeks. […] As determined from a medical screening session, any subjects with active neurological dysfunction (such as a major Axis I psychopathology, Alzheimer's disease, Parkinson's disease, prior history of stroke, epilepsy, or serious CNS trauma, ADHD, migraines, hypertension, diabetes, peripheral vascular disease, or taking vasoactive medications, such as antihypertensive medications) are excluded from the study. […]

brain blood flow = conditions: difference between caffeine and theobromine, 6 participants; cited from earlier work

Row | Compound | change in blood flow/connectivity by fMRI [1] | brain blood flow difference (brain blood flow)
1 | Cn1c(=O)c2c(ncn2C)n(C)c1=O [Caffeine, caffeine] | typical reduction in blood flow/connectivity | 
2 | Cn1cnc2c1c(=O)[nH]c(=O)n2C [theobromine] |  | 5.03 ml/100 gm tissue/min
